Where two headings read alike, the source gives them in different places.
How the values were obtained:
rats = test: effect on spontaneous behavior (sleep induction) after ip injection; assay type: in vivo
Method: Synthetic cis-9,10-octadecenoamide was injected (ip) into rats in order to test its effect on spontaneous behavior at different doses: 1 (n=2), 2 (n=2), 5 (n=7), 10 (n=10), 20 (n=2), and 50 (n=2) mg, where n = number of rats tested. […] However, at a threshold of 5 mg and above there was a marked effect consisting of an induction of long-lasting motor quiescence associated with eyes closed, sedated behavior characteristic of normal sleep. Also as with normal sleep, the rats still responded to auditory stimuli with orienting reflex and sustained attention toward the source of stimulation. In addition, motor behavior was impaired. The latency to behavioral sedation following administration was about 4 minutes and subjects were normally active again after 1 hour (5 mg), 2 hour (10 mg), or 2.5 hour (20 mg and 50 mg).
(§1) We have compared cis-9,10-octadecenoamide to vehicle and the synthetic analogs listed in Figure 1 to estimate the structural specificity of its sleep-inducing potential. […] More particularly, male Sprague-Dawley rats (300 g at the time of surgery) were implanted under halothane anesthesia (2-3%) with a standard set of electrodes for sleep recordings. This included two screw electrodes placed in the parietal bone over the hippocampus to record the subjects electroencephalogram (EEG) and two wire electrodes inserted in the neck musculature to record postural tone through electromyographic activity (EMG). Rats were housed individually with at libitum access to food and water. The dark-light cycle was controlled (12:12, lights on a 10:00 p.m.). One week after the surgery, rats were habituated to the recording conditions for at least three days. Upon the completion of the habituation period, rats received 2 milliliter (ip) of either: vehicle (5% ethanol/saline solution), cis-9,10-octadecenoamide (10 mg), or oleic acid (10 mg). […] Sleep recordings were visually scored and four stages were determined: wakefulness, slow-wave-sleep 1 (SWS1), slow-wave-sleep 2 (SWS2), and rapid eye movement (REM) sleep.

male Sprague-Dawley rats = test: polysomnographic sleep recordings (EEG/EMG) after ip injection; assay type: in vivo; conditions: 10 mg ip, compared to vehicle controls, recorded four hours
Description: as §1
These increases with respect to slow wave sleep (SWS) were at the expense of waking.

[1] = molecular target: T1, amidase activity which catalyzes both the hydrolysis and synthesis of arachidonylethanolamide (anandamide), membrane subcellular fractions from neuroblastoma, g (Rattus norvegicus, UniProt P97612); conditions: 1.5 mM concentration; cited from earlier work
T1 sequence (P97612 1-579): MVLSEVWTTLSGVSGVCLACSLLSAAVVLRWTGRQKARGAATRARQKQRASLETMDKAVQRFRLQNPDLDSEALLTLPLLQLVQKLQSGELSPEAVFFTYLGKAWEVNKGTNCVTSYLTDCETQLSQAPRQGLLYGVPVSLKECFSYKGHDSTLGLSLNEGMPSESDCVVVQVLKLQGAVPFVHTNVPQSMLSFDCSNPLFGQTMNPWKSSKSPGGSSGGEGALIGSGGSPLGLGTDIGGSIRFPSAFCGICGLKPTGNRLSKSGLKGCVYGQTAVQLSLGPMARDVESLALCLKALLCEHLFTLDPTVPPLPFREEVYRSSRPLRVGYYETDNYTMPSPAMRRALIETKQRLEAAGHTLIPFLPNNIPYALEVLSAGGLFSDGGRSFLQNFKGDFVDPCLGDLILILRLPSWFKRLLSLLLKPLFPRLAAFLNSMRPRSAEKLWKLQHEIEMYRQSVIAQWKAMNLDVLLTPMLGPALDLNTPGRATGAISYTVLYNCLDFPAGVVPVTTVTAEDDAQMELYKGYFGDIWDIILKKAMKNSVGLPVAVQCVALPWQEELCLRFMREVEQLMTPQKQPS

[2] = molecular target: T2, cis-9,10-octadecenoamidase, rat brain membrane fraction (Rattus norvegicus, UniProt P97612); assay type: biochemical; conditions: 1 mM inhibitor, 1000 µM
T2 sequence (P97612 1-579): T1 sequence (P97612 1-579)
Method: In each case the enzymic reaction is performed is a separate reaction vessel and the product is spotted onto a TLC plate.
The following protocol is used for assaying cis-9,10-octadecenoamide hydrolysis activity: To […] of 125 mM Tris·HCl, pH 9.0 was added successively 70 mL protein fraction (1 mg/mL protein concentration for brain membrane fraction, 2 mg/mL for brain soluble fraction, 5 mg/mL for pancreatic microsomal preparation), 6 mL of ethanol, and 4 mL of ^14C-cis-9,10-octadecenoamide (in ethanol, 0.25 mCi/mL). Each reaction mixture is incubated for 4 hours at 37°C and then partitioned between EtOAc and 0.07 M HCl. The EtOAc layer is evaporated to dryness and the remaining residue is dissolved in 15 mL ethanol. TLC fractions are taken from this ethanol stock. TLC plates are treated with EN^3HANCE spray and developed at -78°C for 2 hours.

Question: For `CCCCCCCCC/C=C\CCCCCCC(N)=O` [Compound 3, Cis-8,9-octadecenoamide], which “pharmacological effects compared with cis-9,10-octadecenoamide” value (rats; rats) is on record?
Answer: substantial reduction in both the degree and duration of the pharmacological effects

Question: With `CCCCCC/C=C\CCCCCCCCCC(N)=O` [Compound 4, Cis-11,12-octadecenoamide] as the compound, how does the “pharmacological effects compared with cis-9,10-octadecenoamide” value (rats; rats) read?
Answer: substantial reduction in both the degree and duration of the pharmacological effects

Question: Which “pharmacological effects compared with cis-9,10-octadecenoamide” value (rats; rats) does the source give for `CCCCCCCC/C=C\CCCCCCCCCCCC(N)=O` [Compound 6, Erucamide] here?
Answer: substantial reduction in both the degree and duration of the pharmacological effects

Question: Which results are given for `CCCCCCCC/C=C\CCCCCCCC(N)=O` [cis-9,10-octadecenoamide, Cis-9,10-octadecenoamide]?
Answer: mean duration of the SWS individual periods (male Sprague-Dawley rats): increase; total time of slow wave sleep (SWS) (male Sprague-Dawley rats): increase; time after which subjects were normally active again (rats; 5 mg ip, rats): 1 h; time after which subjects were normally active again (rats; 10 mg ip, rats): 2 h; duration of the biological effect (sleep-inducing properties) (rats; 10 mg per rat): two; time after which subjects were normally active again (rats; 20 mg ip, rats): 2.5 h; time after which subjects were normally active again (rats; 50 mg ip, rats): 2.5 h; latency to behavioral sedation following administration (rats; ip, rats): about 4 minutes; threshold dose for induction of long-lasting motor quiescence, sedated behavior characteristic of normal sleep (rats; ip, rats): 5 mg; effect on spontaneous behavior (rats; lower doses (1 and 2 mg), ip, rats): no overt effect on spontaneous behavior

Question: Which overt behavioral effect (rats; rats, compared with cis-9,10-octadecenoamide) does the source give for `CCCCCCCC/C=C\CCCCCCCC(=O)O` [oleic acid, Oleic acid, reference compound] here?
Answer: nor oleic acid (5) showed any overt behavioral effect

Question: With `O=S(=O)(F)Cc1ccccc1` [phenylmethylsulfonyl fluoride] as the compound, how does the “inhibition of the amidase activity (anandamide hydrolysis)” value [1] read?
Answer: completely inhibited

Question: And the “inhibition of enzymatic activity (hydrolysis of cis-9,10-octadecenoamide to oleic acid)” value [2]?
Answer: completely inhibited

Question: What about the “inhibition of enzymatic activity (hydrolysis of cis-9,10-octadecenoamide to oleic acid)” value ([2]; listed as PMSF) of the same compound?
Answer: inhibited
